Measured values reported in patent publication US6977254B2, “Hydroxy cyclohexenyl phenyl carboxamides tocolytic oxytocin receptor antagonists” (Wyeth, priority 2001, dated 2005).

Key:
[1] = target: T1, human vasopressin V1a receptor subtype (Homo sapiens, UniProt P37288); assay: Vasopressin binding in CHO cell membranes expressing human vasopressin V1a subtype receptors ([3H]Manning ligand); conditions: for IC50: value in parentheses; for inhibition at 0.1 µM / V1a % inhibition @ 100 nM: 100 nM, value without parentheses
T1 construct: host or cells: CHO cells, stably transfected (pZeoSV vector for the Thibonnier line); membranes
T1 sequence (P37288 whole entry): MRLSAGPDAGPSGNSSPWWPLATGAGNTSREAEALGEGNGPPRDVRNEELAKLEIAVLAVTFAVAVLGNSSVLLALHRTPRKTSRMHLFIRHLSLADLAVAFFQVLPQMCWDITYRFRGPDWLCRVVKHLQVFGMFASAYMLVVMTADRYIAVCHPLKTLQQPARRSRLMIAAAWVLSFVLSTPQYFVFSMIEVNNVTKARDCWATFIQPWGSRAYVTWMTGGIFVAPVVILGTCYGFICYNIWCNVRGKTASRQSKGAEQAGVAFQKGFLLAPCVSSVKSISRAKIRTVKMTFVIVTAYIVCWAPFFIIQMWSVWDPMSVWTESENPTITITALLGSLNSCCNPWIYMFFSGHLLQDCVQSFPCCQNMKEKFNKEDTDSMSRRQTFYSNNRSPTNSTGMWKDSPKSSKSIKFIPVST
Description: Vasopressin Binding in Chinese Hamster Ovary Cell Membranes Expressing Human Vasopressin V1a Subtype Receptors
Chinese hamster ovary cells (CHO cells) stably transfected with the human vasopressin V1a subtype receptors were either obtained from Biosignal Inc., 1744 rue Williams, Montreal, Quebec, Canada or obtained from M. Thibonnier, Case Western Reserve University School of Medicine, Cleveland, Ohio.
A. Passaging and Amplification of Cells:
CHO cells transfected with the human vasopressin V1a subtype receptors obtained from M. Thibonnier (pZeoSV vector) are allowed to grow to confluency (approx. >90%) in T-150 flasks under sterile conditions, in a cell culture medium of F-12 Nutrient Mixture (HAM) with L-glutamine (Gibco Cat. #11765-054) containing 15 mM HEPES (Gibco Cat. #15630-080), 1% antibiotic/antimycotic (add 5 mL 100×, Gibco Cat. #15240-062 per 500 mL F-12), 250 μg/mL Zeocin (add 1.25 mL of 100 mg/mL Invitrogen R-250-01 per 500 mL F-12) and 10% Fetal Bovine Serum (Qualified, heat inactivated, Gibco Cat. #16140-063). The medium is removed by aspiration and the cells are washed with 10 mL of Hank's Balanced Salt solution (Gibco Cat. #14175-095). The salt solution is removed by aspiration and the cells are trypsinized with 5 mL of trypsin-EDTA (0.05% trypsin, 0.53 mM EDTA-4Na, Gibco Cat. #25300-070) for 1 min. The trypsin is removed by aspiration and the cells dislodged by tapping. Cell Culture medium (eg, 30 mL for 1:30 split) is immediately added and mixed well to inactivate trypsin. 1 mL of detached cells is added to new culture flasks containing fresh cell culture medium (eg, into 25 mL per T-150 flask), and mixed gently. The cells are incubated at 37° C. in 5% CO2. The medium is changed at 3 to 4 days interval (or as appropriate). The cells grow to confluency (approx. >75%-95%) within 7-8 days. All steps are done under sterile conditions.
The cells are washed twice gently with Hank's Balanced Salt solution (e.g,. use 10 mL per T-150 flask). The excess is removed and the cells are bathed for 15-30 min. in an enzyme-free Cell Dissociation Buffer (e.g. use 8 mL Hank's Based, Gibco Cat. #13150-016 per T-150 flask) until the cells are loosened. The contents are transferred to centrifuge tubes (50 mL size) kept in ice bath. All subsequent steps are done at 4° C. The tubes are centrifuged at 300×g for 15 min (1380 rpm on SORVAL, Model RT6000D, using rotor for 50 mL tubes). The supernatant is discarded and the cells suspended in homogeneizing buffer(10 mM Tris-HCl containing 0.25 M sucrose and 1 mM EDTA, pH 7.4) ensuring that the volume of the buffer is about ten times the volume of the cell pellet. The cells are pooled into a centrifuge tube (50 mL) and homogenized with Polytron at setting 6 for 10 sec. The homogenate is transferred into a Potter-Elvjehm homogenizer and homogenized with 3 strokes. The homogenate is centrifuged at 1500×g for 10 min at 4° C. (3100 rpm using SORVAL, model RT6000D, using rotor for 50 mL tubes). The pellet is discarded. The supernatant is centrifuged at 100,000×g for 60 min. at 4° C. (Beckman L8-80M ultracentrifuge; spin at 37,500 rpm with rotor type 70 Ti for 50 mL tubes; 38,000 rpm with type 80Ti for 15 mL tubes; or 35,800 rpm with rotor type 45Ti). The supemantant is discarded and the pellet suspended in 3 to 4 mL of Tris buffer (50 mM TRIS-HCl, pH 7.4). The protein content is estimated by the Bradford or Lowry method. The volume of the membrane suspension is adjusted with the membrane buffer (50 mM Tris-HCl containing 0.1% BSA and 0.1 mM PMSF) to give 3.0 mg/mL (or as appropriate) of protein. The membranes are aliquoted and stored at −70° C.
C. Radioligand Binding Assay: […]

Compound | IC50 [1] [nM] | inhibition at 0.1 µM [1] [%] | further results
COc1cc(C2=CCCCC2)c(Cl)cc1C(=O)N1Cc2ccc(C(=O)N(C)C[C@H](O)[C@@H](O)[C@H](O)[C@H](O)CO)n2Cc2ccccc21 [Example 1, 1-[[[10-[5-Chloro-4-(1-cyclohex-1-en-1-yl)-2-methoxybenzoyl]-10,11-dihydro-5H-pyrrolo[2,1-c][1,4]benzodiazepin-3-yl]carbonyl]methylamino]-1-deoxy-D-glucitol] | 879 |  | melting point: 72 to 73 °C
COc1cc(C2=CCCCC2)c(Cl)cc1C(=O)N1Cc2ccc(C(=O)O)n2Cc2ccccc21 [Example 1G, 10-(5-Chloro-4-cyclohex-1-en-1-yl-2-methoxybenzoyl)-10,11-dihydro-5H-pyrrolo[2,1-c][1,4]benzodiazepine-3-carboxylic acid] |  | 0 | 
COC[C@@H](OC)[C@@H](OC)[C@H](OC)[C@H](CN(C)C(=O)c1ccc2n1Cc1ccccc1N(C(=O)c1cc(Cl)c(C3=CCCCC3)cc1OC)C2)OC [Example 2, 10-(5-Chloro-4-cyclohex-1-en-1-yl-2-methoxybenzoyl)-N-methyl-N-[(2S,3R,4R,5R)-2,3,4,5,6-pentamethoxyhexyl]-10,11-dihydro-5H-pyrrolo[2,1-c][1,4]benzodiazepine-3-carboxamide] | 2190 |  | 
COc1cc(C2=CCCCC2)c(Cl)cc1C(=O)N1Cc2ccc(C(=O)N(C)C[C@@H]3OC(=O)O[C@H]3[C@H](O)[C@H]3COC(=O)O3)n2Cc2ccccc21 [Example 3, 10-(5-Chloro-4-cyclohex-1-en-1-yl-2-methoxybenzoyl)-N-[((4S,5S)-5-{(R)-hydroxy[(4R)-2-oxo-1,3-dioxolan-4-yl]methyl}-2-oxo-1,3-dioxolan-4-yl)methyl]-N-methyl-10,11-dihydro-5H-pyrrolo[2,1-c][1,4]benzodiazepine-3-carboxamide] | 1460 |  | melting point: 163 to 176 °C
COc1cc(C2=CCCCC2)c(Cl)cc1C(=O)N1Cc2ccc(C(=O)N(C)CC(O)CO)n2Cc2ccccc21 (centres unmarked) [Example 4, 10-(5-Chloro-4-cyclohex-1-en-1-yl-2-methoxybenzoyl)-N-(2,3-dihydroxypropyl)-N-methyl-10,11-dihydro-5H-pyrrolo[2,1-c][1,4]benzodiazepine-3-carboxamide] | 613 |  | melting point: 155 to 157 °C
Cc1cc(C(=O)N2Cc3ccc(C(=O)C(Cl)(Cl)Cl)n3Cc3ccccc32)ccc1C1=CCCCC1 [Example 5D, 2,2,2-Trichloro-1-[10-(4-cyclohex-1-en-1-yl-3-methyl-benzoyl)-10,11-dihydro-5H-pyrrolo[2,1-c][1,4]benzodiazepin-3-yl]-methanone] |  |  | V1a % inhibition @ 100 nM [1]: 0%
Cc1cc(C(=O)N2Cc3ccc(C(=O)O)n3Cc3ccccc32)ccc1C1=CCCCC1 [Example 5E, 10-(4-Cyclohex-1-en-1-yl-3-methyl-benzoyl)-10,11-dihydro-5H-pyrrolo[2,1-c][1,4]benzodiazepine-3-carboxylic acid] |  | 8 | 
Cc1cc(C(=O)N2Cc3ccc(C(=O)N(C)C[C@H](O)[C@@H](O)[C@H](O)[C@H](O)CO)n3Cc3ccccc32)ccc1C1=CCCCC1 [Example 5] | 182 |  | 
Cc1cc(C(=O)N2Cc3ccc(C(=O)N(C)C[C@H](O)[C@H]4OC(=O)O[C@@H]4[C@H](O)CO)n3Cc3ccccc32)ccc1C1=CCCCC1 [Example 6, 10-(4-Cyclohex-1-en-1-yl-3-methylbenzoyl)-N-((2S)-2-{(4R,5R)-5-[(1R)-1,2-dihydroxyethyl]-2-oxo-1,3-dioxolan-4-yl}-2-hydroxyethyl)-N-methyl-10,11-dihydro-5H-pyrrolo[2,1-c][1,4]benzodiazepine-3-carboxamide] | 62.4 |  | melting point: 166 to 175 °C
CCOC(=O)[C@H](Cc1ccc(O)cc1)NC(=O)c1ccc2n1Cc1ccccc1N(C(=O)c1ccc(C3=CCCCC3)c(C)c1)C2 [Example 9, (2S)-2-{[10-(4-Cyclohex-1-en-1-yl-3-methyl-benzoyl)-10,11-dihydro-5H-pyrrolo[2,1-c][1,4]benzodiazepine-3-carbonyl]-amino}-3-(4-hydroxy-phenyl)-propionic acid ethyl ester] |  | 6 | 
Cc1cc(C(=O)N2Cc3ccc(C(=O)N[C@@H](Cc4ccc(O)cc4)C(=O)O)n3Cc3ccccc32)ccc1C1=CCCCC1 [Example 10] |  |  | V1a % inhibition @ 100 nM [1]: 14%
COC(=O)[C@H](CO)NC(=O)c1ccc2n1Cc1ccccc1N(C(=O)c1ccc(C3=CCCCC3)c(C)c1)C2 [Example 11, (2S)-2-{[10-(4-Cyclohex-1-en-1-yl-3-methyl-benzoyl)-10,11-dihydro-5H-pyrrolo[2,1-c][1,4]benzodiazepine-3-carbonyl]-amino}-3-hydroxy-propionic acid methyl ester] |  | 6 | 
COC(=O)[C@@H](CO)NC(=O)c1ccc2n1Cc1ccccc1N(C(=O)c1ccc(C3=CCCCC3)c(C)c1)C2 [Example 12, (2R)-2-{[10-(4-Cyclohex-1-en-1-yl-3-methyl-benzoyl)-10,11-dihydro-5H-pyrrolo[2,1-c][1,4]benzodiazepine-3-carbonyl]-amino}-3-hydroxy-propionic acid methyl ester] |  | 16 | 
Cc1cc(C(=O)N2Cc3ccc(C(=O)N[C@@H](CO)C(=O)O)n3Cc3ccccc32)ccc1C1=CCCCC1 [Example 13, (2S)-2-{[10-(4-Cyclohex-1-en-1-yl-3-methyl-benzoyl)-10,11-dihydro-5H-pyrrolo[2,1-c][1,4]benzodiazepine-3-carbonyl]-amino}-3-hydroxy-propionic acid] |  | 5 | 
Cc1cc(C(=O)N2Cc3ccc(C(=O)N[C@H](CO)C(=O)O)n3Cc3ccccc32)ccc1C1=CCCCC1 [Example 14, (2R)-2-{[10-(4-Cyclohex-1-en-1-yl-3-methyl-benzoyl)-10,11-dihydro-5H-pyrrolo[2,1-c][1,4]benzodiazepine-3-carbonyl]-amino}-3-hydroxy-propionic acid] |  | 6 | 
Cc1cc(C(=O)N2Cc3ccc(C(=O)O)n3Cc3ccccc32)ccc1C1=CCCc2ccccc21 [Example 15B, 10-[4-(3,4-Dihydro-naphthalen-1-yl)-3-methyl-benzoyl]-10,11-dihydro-5H-pyrrolo[2,1-c][1,4]benzodiazepine-3-carboxylic acid] |  | -2 | 
Cc1cc(C(=O)N2Cc3ccc(C(=O)N(C)C[C@H](O)[C@@H](O)[C@H](O)[C@H](O)CO)n3Cc3ccccc32)ccc1C1=CCCc2ccccc21 [Example 15] | 646 |  | 
Cc1cc(C(=O)N2Cc3ccc(C(=O)N(CCO)CCO)n3Cc3ccccc32)ccc1C1=CCCc2ccccc21 [Example 16, {10-[4-(3,4-Dihydro-naphthalen-1-yl)-3-methyl-benzoyl]-10,11-dihydro-5H-pyrrolo[2,1-c][1,4]benzodiazepin-3-yl}-3-carboxylic acid bis-(2-hydroxy-ethyl)-amide] |  |  | V1a % inhibition @ 100 nM [1]: 6%
Cc1cc(C(=O)N2Cc3ccc(C(=O)N4CCN(CCO)CC4)n3Cc3ccccc32)ccc1C1=CCCCC1 [Example 17, {10-[4-(1-Cyclohex-1-en-1-yl)-3-methylbenzoyl]-10,11-dihydro-5H-pyrrolo[2,1-c][1,4]benzodiazepin-3-yl}[4-(2-hydroxyethyl)-1-piperazinyl]methanone] |  |  | V1a % inhibition @ 100 nM [1]: 31%
